Reference: ChEMBL document CHEMBL1275250, “In vitro activity of azithromycin against nontyphoidal Salmonella enterica” (2010)
≈ marks a conversion by molar mass, not a printed value.

Legend:
[1] = Antibacterial activity against Salmonella enterica subsp. enterica serovar Saintpaul harboring G235A mutation in rlpD gene by agar dilution method; assay type: functional
[2] = Antibacterial activity against Salmonella enterica serovar montevideo harboring rlpD GC379T and rlpV G25A mutant gene by agar dilution method; assay type: functional, Salmonella enterica subsp. enterica serovar Montevideo
[3] = Antibacterial activity against Salmonella enterica serovar blockley harboring G235A mutation in rlpD gene by agar dilution method; assay type: functional, Salmonella enterica subsp. enterica serovar Blockley
[4] = system: Salmonella typhimurium; experiment: Antibacterial activity against Salmonella enterica serovar Typhimurium harboring G235A mutation in rlpD gene by agar dilution method; assay type: functional, Salmonella enterica subsp. enterica serovar Typhimurium
[5] = Antibacterial activity against quinolone-resistant Salmonella enterica serovar stanley s2018 by agar dilution method; assay type: functional, Salmonella enterica subsp. enterica serovar Stanley
[6] = Antibacterial activity against quinolone-susceptible Salmonella enterica serovar hvittingfoss s2948 by agar dilution method; assay type: functional, Salmonella enterica subsp. enterica serovar Hvittingfoss
[7] = Antibacterial activity against quinolone-susceptible Salmonella enterica serovar blockley s2439 by agar dilution method; assay type: functional, Salmonella enterica subsp. enterica serovar Blockley
[8] = Antibacterial activity against quinolone-susceptible Salmonella enterica serovar newport s2099 by agar dilution method; assay type: functional, Salmonella enterica subsp. enterica serovar Newport
[9] = Antibacterial activity against quinolone-susceptible Salmonella enterica serovar blockley s2608 by agar dilution method; assay type: functional, Salmonella enterica subsp. enterica serovar Blockley
[10] = Antibacterial activity against quinolone-susceptible Salmonella enterica serovar rissen s2021 by agar dilution method; assay type: functional, Salmonella enterica subsp. enterica serovar Rissen
[11] = Antibacterial activity against quinolone-susceptible Salmonella enterica serovar rissen s3141 by agar dilution method; assay type: functional, Salmonella enterica subsp. enterica serovar Rissen
[12] = Antibacterial activity against quinolone-susceptible Salmonella enterica serovar bredeney s2477 by agar dilution method; assay type: functional, Salmonella enterica subsp. enterica serovar Bredeney
[13] = Antibacterial activity against quinolone-resistant Salmonella enterica serovar stanley s2085 by agar dilution method; assay type: functional, Salmonella enterica subsp. enterica serovar Stanley
[14] = Antibacterial activity against quinolone-susceptible Salmonella enterica serovar virchow s2195 by agar dilution method; assay type: functional, Salmonella enterica subsp. enterica serovar Virchow
[15] = system: Salmonella typhimurium; experiment: Antibacterial activity against quinolone-susceptible Salmonella enterica serovar Typhimurium s3082 by agar dilution method; assay type: functional, Salmonella enterica subsp. enterica serovar Typhimurium
[16] = Antibacterial activity against quinolone-resistant Salmonella enterica serovar stanley s2280 by agar dilution method; assay type: functional, Salmonella enterica subsp. enterica serovar Stanley
[17] = Antibacterial activity against quinolone-resistant Salmonella enterica serovar stanley s2236 by agar dilution method; assay type: functional, Salmonella enterica subsp. enterica serovar Stanley
[18] = Antibacterial activity against quinolone-resistant Salmonella enterica serovar stanley s2265 by agar dilution method; assay type: functional, Salmonella enterica subsp. enterica serovar Stanley
[19] = Antibacterial activity against quinolone-susceptible Salmonella enterica serovar blockley s2768 by agar dilution method; assay type: functional, Salmonella enterica subsp. enterica serovar Blockley
[20] = Antibacterial activity against quinolone-susceptible Salmonella enterica serovar poona s2181 by agar dilution method; assay type: functional, Salmonella enterica subsp. enterica serovar Poona
[21] = system: Salmonella enteritidis; experiment: Antibacterial activity against quinolone-susceptible Salmonella enterica serovar enteritidis s3139 by agar dilution method; assay type: functional, Salmonella enterica subsp. enterica serovar Enteritidis
[22] = system: Salmonella typhimurium; experiment: Antibacterial activity against quinolone-susceptible Salmonella enterica serovar Typhimurium s2391 by agar dilution method; assay type: functional, Salmonella enterica subsp. enterica serovar Typhimurium
[23] = Antibacterial activity against quinolone-susceptible Salmonella enterica serovar stanley s2868 by agar dilution method; assay type: functional, Salmonella enterica subsp. enterica serovar Stanley
[24] = Antibacterial activity against quinolone-susceptible Salmonella enterica serovar saintpaul s2829 by agar dilution method; assay type: functional, Salmonella enterica subsp. enterica serovar Saintpaul
[25] = system: Salmonella enterica; experiment: Antibacterial activity against quinolone-resistant Salmonella enterica; assay type: functional
[26] = Antibacterial activity against quinolone-resistant Salmonella enterica serovar stanley s2086 by agar dilution method; assay type: functional, Salmonella enterica subsp. enterica serovar Stanley
[27] = Antibacterial activity against quinolone-susceptible Salmonella enterica serovar emek s2635 by agar dilution method; assay type: functional, Salmonella enterica subsp. enterica serovar Emek
[28] = system: Salmonella typhimurium; experiment: Antibacterial activity against quinolone-susceptible Salmonella enterica serovar Typhimurium s2137 by agar dilution method; assay type: functional, Salmonella enterica subsp. enterica serovar Typhimurium
[29] = system: Salmonella typhimurium; experiment: Antibacterial activity against quinolone-susceptible Salmonella enterica serovar Typhimurium s2389 by agar dilution method; assay type: functional, Salmonella enterica subsp. enterica serovar Typhimurium

With `CC[C@H]1OC(=O)[C@H](C)C(=O)[C@H](C)[C@@H](O[C@@H]2O[C@H](C)C[C@H](N(C)C)[C@H]2O)[C@](C)(OC)C[C@@H](C)C(=O)[C@H](C)[C@H]2N(CCCCn3cnc(-c4cccnc4)c3)C(=O)O[C@]12C` [TELITHROMYCIN] the MIC [1] was > 128 µg/mL, the MIC [2] was 4 µg/mL (≈ 4.93 µM) and the MIC [3] was > 128 µg/mL. For the same compound, the MIC [4] was > 128 µg/mL.

In the case of `CC[C@H]1OC(=O)[C@H](C)[C@@H](O[C@H]2C[C@@](C)(OC)[C@@H](O)[C@H](C)O2)[C@H](C)[C@@H](O[C@@H]2O[C@H](C)C[C@H](N(C)C)[C@H]2O)[C@](C)(O)C[C@@H](C)CN(C)[C@H](C)[C@@H](O)[C@]1(C)O` [AZITHROMYCIN], the MIC [5] was 64 µg/mL (≈ 85.4 µM), the MIC [6] was 128 µg/mL (≈ 171 µM) and the MIC [7] was 64 µg/mL (≈ 85.4 µM). The MIC [8] was 32 µg/mL (≈ 42.7 µM), the MIC [9] was 64 µg/mL (≈ 85.4 µM) and the MIC [10] was > 128 µg/mL. For the same compound, the MIC [11] was 64 µg/mL (≈ 85.4 µM), the MIC [12] was > 128 µg/mL and the MIC [1] was 64 µg/mL (≈ 85.4 µM). For the same compound, the MIC [13] was 64 µg/mL (≈ 85.4 µM), the MIC [2] was 4 µg/mL (≈ 5.34 µM) and the MIC [14] was > 128 µg/mL. For the same compound, the MIC [15] was 128 µg/mL (≈ 171 µM), the MIC [16] was 64 µg/mL (≈ 85.4 µM) and the MIC [3] was 64 µg/mL (≈ 85.4 µM). For the same compound, the MIC [17] was 32 µg/mL (≈ 42.7 µM), the MIC [18] was 128 µg/mL (≈ 171 µM) and the MIC [19] was 128 µg/mL (≈ 171 µM). For the same compound, the MIC [20] was 32 µg/mL (≈ 42.7 µM), the MIC [21] was 128 µg/mL (≈ 171 µM) and the MIC [22] was 128 µg/mL (≈ 171 µM). For the same compound, the MIC [23] was 128 µg/mL (≈ 171 µM), the MIC [24] was 64 µg/mL (≈ 85.4 µM) and the MIC [25] was ≥ 32 µg/mL. For the same compound, the MIC [26] was 64 µg/mL (≈ 85.4 µM), the MIC [27] was 64 µg/mL (≈ 85.4 µM) and the MIC [28] was 128 µg/mL (≈ 171 µM). It also gave an MIC [4] of 128 µg/mL (≈ 171 µM) and an MIC [29] of 128 µg/mL (≈ 171 µM).

For `CCn1cc(C(=O)O)c(=O)c2ccc(C)nc21` [NALIDIXIC ACID], the MIC [1] was 16 µg/mL (≈ 68.9 µM), the MIC [2] was 16 µg/mL (≈ 68.9 µM) and the MIC [3] was > 512 µg/mL. The MIC [25] was ≥ 32 µg/mL and the MIC [4] was 16 µg/mL (≈ 68.9 µM).

For `CC[C@H]1OC(=O)[C@H](C)[C@@H](O[C@H]2C[C@@](C)(OC)[C@@H](O)[C@H](C)O2)[C@H](C)[C@@H](O[C@@H]2O[C@H](C)C[C@H](N(C)C)[C@H]2O)[C@](C)(O)C[C@@H](C)C(=O)[C@H](C)[C@@H](O)[C@]1(C)O` [ERYTHROMYCIN], the MIC [1] was > 128 µg/mL, the MIC [2] was > 64 µg/mL and the MIC [3] was > 128 µg/mL. For the same compound, the MIC [4] was > 64 µg/mL.

`O=C(O)c1cn(C2CC2)c2cc(N3CCNCC3)c(F)cc2c1=O` [CIPROFLOXACIN] gave an MIC [1] of 0.03 µg/mL (≈ 0.0905 µM), an MIC [2] of 0.5 µg/mL (≈ 1.51 µM) and an MIC [3] of 0.25 µg/mL (≈ 0.754 µM). The MIC [25] was ≥ 0.125 µg/mL and the MIC [4] was 0.06 µg/mL (≈ 0.181 µM).
